{
  "source": "patent US10759749B2",
  "about": "“Therapeutic agent for diabetes” (JCR Pharmaceuticals Co., Ltd., priority 2016, dated 2020)",
  "key": {"human SUR1 (hSUR1)": {"biological_target": "T1, human SUR1 (hSUR1) (Homo sapiens, UniProt Q09428)", "T1 construct": "expressed in transfected cells", "T1 sequence (Q09428 whole entry)": "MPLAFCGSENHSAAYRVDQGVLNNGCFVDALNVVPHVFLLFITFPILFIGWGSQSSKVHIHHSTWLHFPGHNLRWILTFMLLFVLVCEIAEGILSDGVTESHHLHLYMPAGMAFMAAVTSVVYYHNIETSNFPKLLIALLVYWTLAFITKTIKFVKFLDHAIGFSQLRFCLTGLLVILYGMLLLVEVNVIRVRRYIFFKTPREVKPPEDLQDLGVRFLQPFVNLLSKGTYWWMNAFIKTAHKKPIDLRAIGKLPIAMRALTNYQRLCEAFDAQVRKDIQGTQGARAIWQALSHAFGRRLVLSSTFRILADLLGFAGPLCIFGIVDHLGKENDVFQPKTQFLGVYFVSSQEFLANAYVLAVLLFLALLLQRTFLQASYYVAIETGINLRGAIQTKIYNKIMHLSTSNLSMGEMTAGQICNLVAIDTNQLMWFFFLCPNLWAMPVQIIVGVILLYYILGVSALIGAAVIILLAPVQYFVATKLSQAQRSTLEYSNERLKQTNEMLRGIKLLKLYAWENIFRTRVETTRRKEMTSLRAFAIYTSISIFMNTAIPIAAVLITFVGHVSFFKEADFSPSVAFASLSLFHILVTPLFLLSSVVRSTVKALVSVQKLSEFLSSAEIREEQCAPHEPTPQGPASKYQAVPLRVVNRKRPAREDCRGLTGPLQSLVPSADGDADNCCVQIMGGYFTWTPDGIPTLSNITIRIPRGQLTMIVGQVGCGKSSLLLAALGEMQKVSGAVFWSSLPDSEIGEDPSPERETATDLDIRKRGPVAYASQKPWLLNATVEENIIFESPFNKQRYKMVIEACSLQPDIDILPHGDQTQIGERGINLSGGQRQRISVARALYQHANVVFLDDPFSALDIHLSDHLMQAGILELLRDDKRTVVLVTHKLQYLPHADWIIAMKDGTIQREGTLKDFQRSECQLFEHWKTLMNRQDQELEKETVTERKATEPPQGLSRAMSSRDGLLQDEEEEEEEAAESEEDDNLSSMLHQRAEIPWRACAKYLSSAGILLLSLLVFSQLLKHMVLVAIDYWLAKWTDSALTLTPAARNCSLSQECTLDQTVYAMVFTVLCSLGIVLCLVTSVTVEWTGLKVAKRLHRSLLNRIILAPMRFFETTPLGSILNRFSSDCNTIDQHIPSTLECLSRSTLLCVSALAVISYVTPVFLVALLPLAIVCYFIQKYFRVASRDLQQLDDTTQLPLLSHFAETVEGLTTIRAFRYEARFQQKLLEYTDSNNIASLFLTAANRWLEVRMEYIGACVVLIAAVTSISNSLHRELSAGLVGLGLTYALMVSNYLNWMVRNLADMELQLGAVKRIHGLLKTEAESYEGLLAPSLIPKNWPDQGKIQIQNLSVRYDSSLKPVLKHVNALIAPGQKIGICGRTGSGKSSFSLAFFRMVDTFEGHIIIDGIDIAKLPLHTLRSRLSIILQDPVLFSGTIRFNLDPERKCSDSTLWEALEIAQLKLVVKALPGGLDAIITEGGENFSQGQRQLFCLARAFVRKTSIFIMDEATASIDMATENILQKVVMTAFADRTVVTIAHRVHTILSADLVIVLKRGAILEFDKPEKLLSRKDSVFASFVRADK", "assay": "[^3H] glibenclamide competition test", "assay_type": "binding", "conditions": "10 nM [^3H] glibenclamide, 30 minutes", "method": "An expression vector incorporating a gene encoding human SUR1 (hSUR1) was introduced into MIN6-K8 cells by a conventional method to establish a cell line MIN6-K8, which expresses hSUR1 strongly. The MIN6-K8 cells expressing strongly hSUR1 were cultured in a buffer containing 10 nM [^3H] glibenclamide and DSC108-Na for 30 minutes. In this, the concentration of DSC108-Na in the buffer was 300 μM to 1 mM. The cells were vacuum-filtered and recovered on Whatmann GF/C filters (Whatmann International Inc.), and then the filters were washed three times with 4 mL of ice-cold buffer. After washing, radioactivities of the filters were measured with a liquid scintillation counter, and the amount of [^3H] glibenclamide bound to MIN6-K8 cells expressing strongly hSUR1 via hSUR1 was measured. Then, the value at the time of non-addition of DSC108-Na was taken as 100%, and the binding amount (%) of [^3H] glibenclamide to MIN6-K8 cells was determined as a relative value to this value."}, "pancreatic β cells": {"system": "pancreatic β cells", "assay": "Electrophysiological test using pancreatic β cells (membrane potential, perforated patch clamp)", "assay_type": "cell-based, C57BL/6 mice", "conditions": "in the presence of 30 μM compound; −69±2 mV in its absence", "method": "Islets were isolated from C57BL/6 mice by collagenase digestion method in accordance with the method described “in Shibasaki T. Proc Natl Acad Sci USA. 104, 19333-8 (2007)”. The pancreatic islet cells were dispersed and cultured in DMEM supplemented with 10% FBS, and then plated on a 3.5 cm dish sheeted prior to the experiment with a glass flake coated with collagen.\nMembrane potential of pancreatic β cells was measured by a perforated patch clamp method (Gonoi T J J. Biol. Chem., 269: 16989-92 (1994)) in current clamp mode. As an extracellular solution, 5 mM HEPES buffer-NaOH (pH 7.4) containing 143 mM NaCl, 5.4 mM KCl, 1.8 mM CaCl2, 0.5 mM MgCl2, 0.33 mM NaHPO4 and 5.5 mM glucose was used. As a pipette solution, 11 mM HEPES-KOH buffer (pH 7.4) containing 107 mM KCl, 11 mM EGTA, 2 mM MgSO4, 1 mM CaCl2 and […] ATP-K2 was used. Under this condition, outward current induced by 30 μM DSC108 was measured by a pierced patch clamp assay."}, "MIN6-K8 cells [1]": {"system": "MIN6-K8 cells", "assay": "Measurement of intracellular calcium ion concentration (Fura-2-AM)", "assay_type": "cell-based", "conditions": "3 μM to 30 μM, 2.8 mM glucose", "method": "In accordance with the method described in “Shimaoto K. Mol Pharmacol. 53, 195-201 (1998)”, measurement of intracellular calcium concentration was performed using fura-2-acetoxymethyl ester (Fura-2-AM, Dojindo Inc.) which is a calcium ion sensitive fluorescent reagent. MIN6-K8 cells were grown in Dulbecco's modified Eagle medium (DMEM medium) supplemented with 10% FBS, 50 μM 2-mercaptoethanol, 100 mg/L streptomycin and 60.5 mg/L penicillin sulfate in a humidified condition of 5% CO2, at 37° C.\nMIN6-K8 cells were then left alone in KRBH buffer containing 5 μM Fura-2-AM and 2.8 mM glucose at 37° C. for 20 minutes. Then, KRBH buffer containing 3 μM, 10 μM or 30 μM of DSC108 was each added as a test compound and fluorescence intensity at 340 nm and 380 nm were measured using a dual wavelength fluorometer (Fluoroskan Ascent CF, Labsystem Inc.) over time for 20 minutes and the values of “fluorescence intensity at 340 nm/fluorescence intensity at 380 nm” were determined. […] Measurement was carried out with n=4."}, "mouse pancreases": {"system": "mouse pancreases", "assay": "Insulin secretion stimulation test using mice (pancreas perfusion)", "assay_type": "in vivo", "conditions": "10 μM, 2.8 mM glucose, perfused mouse pancreas", "method": "Insulin secretion stimulation test using mouse was performed in accordance with the method described in Bonnevie-Nielsen V. Diabetes. 30. 424-9 (1981) and Miki T. Diabetes. 54. 1056-63 (2005). Male mice, 16 to 20 weeks old, fasted for 6 hours, were anesthetized by administering sodium pentobarbital at a dose of 80 mg/kg body weight. The anesthetized mouse pancreases were perfused with KRBH buffer containing 4.6% dextran and 0.25% BSA aerated at 95% O2/5% CO2.\nSubsequently, mouse pancreases were perfused with KRBH buffer containing 2.8 mM glucose and 10 μM DSC 108, and the perfused solution was collected every minute, and the concentration of insulin contained in the perfusion solution was measured with an insulin assay kit (CIS Bio international Inc.) over time. IN parallel, as a control, mouse pancreases were perfused with a KRBH buffer solution containing 2.8 mM glucose, and the concentration of insulin contained in the perfusion solution was measured in the same manner."}, "MIN6-K8 cells [2]": {"system": "MIN6-K8 cells", "assay": "Insulin secretion stimulation test using MIN6-K8 cells", "assay_type": "cell-based", "conditions": "for insulin secretion from MIN6-K8 cells (relative to control): 1 μM to 100 μM test compound, 11.2 mM glucose, 30 minutes; for amount of insulin secretion from MIN6-K8 cells at 100 μM compared with 30 μM: concentration of 100 μM", "method": "MIN6-K8 cells (cells similar to the MIN6-m9 cell line deposited as FERM P-18081) were cultured in Dulbecco's modified Eagle's medium (DMEM medium) supplemented with 10% FBS, 50 μM 2-mercaptoethanol, 100 mg/L streptomycin and 60.5 mg/L penicillin sulfate at 37° C. After washing the MIN 6-K8 cells twice with medium, the cells were washed twice with 133.4 mM NaCl, 4.7 mM KCl, 1.2 mM KH2PO4, 1.2 mM MgSO4, 2.5 mM CaCl2, 5.0 mM NaHCO3, 2.8 mM glucose, 0.1% BSA and 10 mM HEPES buffer (pH 7.4) for 30 minutes. Cells were then cultured for 30 minutes in the KRBH buffer containing the test compound and 11.2 mM glucose. After incubation, the concentration of insulin contained in the KRBH buffer solution was measured using an insulin assay kit (CIS Bio International Inc.). The concentration of insulin was obtained as a relative value when the concentration of insulin when the test compound was not added was taken as 1. Here, DSC108 and C8 were used as test compounds, and the abilities to promote insulin secretion of both drugs were compared within a concentration range of 1 μM to 100 μM. Measurement was carried out with n=3.\nFor the 1,1-diphenyl-4-cyclohexyl-semicarbazide derivatives numbered 2 to 7 shown in Table 1, an insulin secretion stimulation test using the above MIN6-K8 cells was performed. The concentration of the test compound was 100 μM, and the amount of secretion when the amount of insulin secreted when no test compound was added was taken as 1 was measured. Incidentally, the number 1 is 1,1-diphenyl-4-cyclohexyl-semicarbazide represented by the chemical formula (18). Numbers 2 to 7 are compounds in which one of hydrogen atoms on the cyclohexyl ring of 1,1-diphenyl-4-cyclohexyl-semicarbazide is substituted with a carboxyl group."}, "[3]": {"biological_target": "T2, KATP channel (human SUR1 and human Kir6.2 reconstituted in COS-1 cells) (Homo sapiens, UniProt Q09428)", "T2 construct": "expressed in transfected cells; host or cells: COS-1 cells", "T2 sequence (Q09428 whole entry)": "as above", "T2 sequence (Q14654 whole entry partner)": "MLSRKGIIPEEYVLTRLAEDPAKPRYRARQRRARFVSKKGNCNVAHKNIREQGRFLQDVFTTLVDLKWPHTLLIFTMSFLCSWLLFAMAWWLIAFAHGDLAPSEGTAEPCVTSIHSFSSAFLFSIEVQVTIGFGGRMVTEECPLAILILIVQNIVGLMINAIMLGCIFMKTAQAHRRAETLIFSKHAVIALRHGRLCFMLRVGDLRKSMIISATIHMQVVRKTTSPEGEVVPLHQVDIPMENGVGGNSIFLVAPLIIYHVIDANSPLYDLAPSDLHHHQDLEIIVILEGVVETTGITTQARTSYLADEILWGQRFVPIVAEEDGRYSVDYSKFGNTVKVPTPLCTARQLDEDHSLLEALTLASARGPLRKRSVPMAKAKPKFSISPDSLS", "assay": "Electrophysiological test using KATP channel expressing COS-1 cells", "assay_type": "cell-based", "conditions": "300 μM diazoxide; read-out: IC50 of inhibition of polarization of COS-1 cell membrane via KATP channel induced by diazoxide", "method": "Expression vectors incorporating the gene encoding human SUR1 (hSUR1) and expression vector incorporating the gene encoding human Kir6.2 (hKir6.2) were introduced into COS-1 cells together, and the KATP channel was reconstituted with COS-1 cells (Inagaki N. Science. 270, 1166-70 (1995)). The cells were cultured in DMEM medium (Sigma-Aldrich Inc.) supplemented with 10% FBS and plated on a 3.5 cm dish on which glass flakes coated with collagen had been spread prior to the experiment, and incubated at 37° C. for 24 to 72 hours.\nThe membrane potential of COS-1 cells reconstituted with KATP channels was determined by the method described in (Gonoi TJ Biol. Chem., 269: 16989-92 (1994)), in the current clamp mode with perforated patch clamp method. […] Inhibitory effect of DSC108 on the polarization of COS-1 cell membrane via KATP channel induced by 300 μM diazoxide (Sigma Chemical Inc.) under these conditions was measured.\nAt this time, outward current induced by 300 μM diazoxide (Sigma Chemical Inc.) was measured by […] patch clamp assay, and this value was set to 0 mV. The value of outward current when DSC108, glibenclamide or glicrazaide (Sigma Chemical Inc.) was added together with diazoxide was determined to determine the inhibitory effect (IC50) of these agents on the polarization of the cell membrane induced by diazoxide."}, "[4]": {"assay": "Measurement of blood concentration after oral administration", "procedure": "(§1) Peripheral blood was collected over time from the tail vein after administration. The collected blood was centrifuged to obtain plasma. An extraction solution (chloroform:methanol:water=1:2:0.8) containing 20 μM methionine sulfone was added to the plasma, followed by stirring and centrifugation. After filtering the extracted solution fraction with a 5 kD filter (Millipore Inc.), the extract was lyophilized. The extract obtained by lyophilization was dissolved in pure water and subjected to mass spectrometry. Mass spectrometry was performed using a mass spectrometer (LCMS-8050, Shimazu Inc.) fitted with liquid chromatography (Nexera UHPLC, Shimazu Inc.). Separation by liquid chromatography was performed with a double gradient of 0.1% formic acid aqueous solution and 0.1% acetonitrile formic acid solution using Discovery HS F5 column (3 μm, 2.1 mm×150 mm, Shigma-Aldrich Inc.)."}, "[5]": {"conditions": "mouse, in vivo, po, 30 mg/kg", "procedure": "as §1"}, "wild type mice": {"system": "wild type mice", "assay": "Measurement of hypoglycemic action using wild type mice (glucose loading)", "assay_type": "in vivo, C57BL/6JJc1 mice", "conditions": "oral 10 to 100 mg/kg body weight, 20 minutes before glucose loading 1.5 g/kg", "method": "To male C57BL/6JJc1 mice (CLEA Japan Inc.) of 18 to 30 weeks old fasted for 16 hours, 10, 30 or 100 mg/kg body weight of DSC108-Na was orally administered 20 minutes before glucose loading (1.5 g glucose/kg body weight) (10 mg/kg body weight administration group, 30 mg/kg body weight administration group and 100 mg/kg body weight administration group, respectively). As a control, DSC108-Na non-administration group (vehicle administration group) was placed. Glucose concentration in the blood was measured over time over 120 minutes after the administration using Antsense III glucose analyzer (Horiba Inc.). Measurement was carried out using 4 mice in each group."}, "[6]": {"system": "type 2 diabetes model rats", "assay": "Measurement of hypoglycemic action using type 2 diabetes model rats (glucose loading)", "assay_type": "in vivo", "conditions": "GK/Slc rats, oral 100 mg/kg body weight", "method": "To male GK/Slc rats (Japan SLC Inc.) 18-30 weeks old fasted for 6 hours, DSC108-Na was orally administered at 100 mg/kg body weight 20 minutes before glucose loading (1.5 g glucose/kg body weight) (DSC108-Na administration group). As a control, DSC108-Na non-administration group (vehicle administration group) was placed. The glucose concentration in the blood was measured using Antsense III glucose analyzer (Horiba Inc.). In addition, blood insulin concentration was measured by an ELISA method using an insulin measurement kit (Morinaga Inc.). Not limited to this examination, all animal tests were conducted in accordance with the provisions of the Kobe University Animal Experiment Implementation Rules with the approval of the Animal Experimental Ethics Committee of Kobe University."}},
  "note": "Where two headings read alike, the source gives them in different places.",
  "data": [
    {"compound": "O=C(O)[C@H]1CC[C@@H](NC(=S)NN(c2ccccc2)c2ccccc2)CC1", "note": "[DSC108]", "values": [
      {"measurement": "binding of [^3H] glibenclamide to hSUR1-strongly expressed MIN6-K8 cells", "setting": "human SUR1 (hSUR1)", "value": "inhibited the binding of [^3H] glibenclamide to hSUR1-strongly expressed MIN6-K8 cells in a concentration-dependent manner"},
      {"measurement": "membrane potential of pancreatic β cells", "setting": "pancreatic β cells", "value": "−54±4", "unit": "mV"},
      {"measurement": "intracellular calcium ion concentration (fluorescence 340 nm/380 nm)", "setting": "MIN6-K8 cells [1]", "value": "increased intracellular calcium ion concentration in a concentration-dependent manner"},
      {"measurement": "time after initiation of perfusion at which insulin concentration in the perfusion liquid increased", "setting": "mouse pancreases", "value": 5, "unit": "min"},
      {"measurement": "time after start of perfusion at which insulin concentration returned to baseline", "setting": "mouse pancreases", "value": 9, "unit": "min"},
      {"measurement": "insulin secretion promoting ability compared between the two test compounds", "setting": "MIN6-K8 cells [2]; 1 μM to 100 μM", "value": "higher insulin secretion promoting ability as compared with C8"},
      {"measurement": "insulin secretion from MIN6-K8 cells (relative to control)", "setting": "MIN6-K8 cells [2]", "value": "promoted insulin secretion from MIN6-K8 cells in a concentration-dependent manner"},
      {"measurement": "amount of insulin secretion from MIN6-K8 cells at 100 μM compared with 30 μM", "setting": "MIN6-K8 cells [2]", "value": "decreased as compared with the concentration at 30 μM"},
      {"measurement": "IC50", "setting": "[3]", "value": 2300, "unit": "nM"}
    ]},
    {"compound": "Cc1ccc(S(=O)(=O)NC(=O)NN2CC3CCCC3C2)cc1", "note": "(centres unmarked) [Glyclazide, gliclazide]", "values": [
      {"measurement": "concentration at 120 min", "setting": "[4]; male, C57BL/6JJc1, mouse, plasma, po, 30 mg/kg", "value": 75, "unit": "µM"},
      {"measurement": "time after administration of the highest blood concentration", "setting": "[4]; mice, oral, 30 mg/kg body weight", "value": 60, "unit": "min"},
      {"measurement": "highest value in blood concentration", "setting": "[4]; mice, oral, 30 mg/kg body weight, plasma", "value": "approximately 100 μM"}
    ]},
    {"compound": "S=C(NC1CCCCC1)NN(c1ccccc1)c1ccccc1", "note": "[C8, 1,1-diphenyl-4-cyclohexyl-thiosemicarbazide]", "values": [
      {"measurement": "insulin secretion from MIN6-K8 cells (relative to control)", "setting": "MIN6-K8 cells [2]", "value": "promoted insulin secretion from MIN6-K8 cells in a concentration-dependent manner"},
      {"measurement": "amount of insulin secretion from MIN6-K8 cells at 100 μM compared with 30 μM", "setting": "MIN6-K8 cells [2]", "value": "decreased as compared with the concentration at 30 μM"}
    ]},
    {"compound": "O=C(O)[C@H]1CC[C@@H](NC(=S)NN(c2ccccc2)c2ccccc2)CC1", "note": "[DSC108-Na]", "values": [
      {"measurement": "disappearance from the blood", "setting": "[5]", "value": "quickly disappeared from the blood"},
      {"measurement": "highest value in blood concentration", "setting": "[5]", "value": 72.4, "unit": "µM"},
      {"measurement": "time after administration of the highest blood concentration", "setting": "[5]", "value": 30, "unit": "min"},
      {"measurement": "hypoglycemic effect (blood glucose concentration)", "setting": "wild type mice", "value": "dose-dependent hypoglycemic effect"},
      {"measurement": "duration of the effect of lowering the glucose concentration in the blood", "setting": "[6]", "value": 120, "unit": "min"},
      {"measurement": "blood levels of insulin", "setting": "[6]; 20 minutes after administration", "value": "increase in blood levels of insulin was observed"}
    ]}
  ]
}
